Organism: Rattus norvegicus
Assay: Open TG-GATES - Regimen: Single
Type: toxicity, organism-based, Sprague-Dawley
Design: regimen Single, gender Male, age 6 weeks
Settings: in vivo, po, 100 mg/kg, route gavage, dose level Middle; for APTT / Bas / Eos / Fbg / Hb / Ht / Lym / MCH / MCHC / MCV / Mono / Neu / PT / Plat / RBC / Ret / WBC: tissue Blood; for KIDNEY_L / KIDNEY_R / KIDNEY_TOTAL: tissue Kidney; for LIVER: tissue Liver; for A/G / ALP / ALT / AST / BUN / CRE / Ca / Cl / DBIL / GLC / IP / K / LDH / Na / PL / RALB / TBIL / TC / TG / TP / gamma-GTP: tissue Plasma

With Cc1ccc(C)c(OCCCC(C)(C)C(=O)O)c1 [GEMFIBROZIL] the TERMINAL_BW (3 h) was 221.2 g, the APTT (3 h) was 15.4 s and the Bas (3 h) was 0%. It also gave an Eos (3 h) of 0.8%, a Fbg (3 h) of 283.2 mg/dL and a Hb (3 h) of 13.4 g/dL. The Ht (3 h) was 39.6%, the Lym (3 h) was 78.2% and the MCH (3 h) was 21.5 pg. It also gave an MCHC (3 h) of 33.8%, an MCV (3 h) of 63.4 fL and a Mono (3 h) of 3.2%. It also gave a Neu (3 h) of 17.4%, a PT (3 h) of 12.4 s and a Plat (3 h) of 116.9 x10_4/uL. The RBC (3 h) was 624.4 x10_4/ul, the Ret (3 h) was 7.2% and the WBC (3 h) was 76.9 x10_2/uL. For the same compound, the KIDNEY_L (3 h) was 1 g, the KIDNEY_R (3 h) was 1 g and the KIDNEY_TOTAL (3 h) was 1.9 g. For the same compound, the LIVER (3 h) was 9.4 g, the A/G (3 h) was 0.8 and the ALP (3 h) was 1811 IU/L. It also gave an ALT (3 h) of 47.8 IU/L, an AST (3 h) of 80.8 IU/L and a BUN (3 h) of 11.8 mg/dL. It also gave a CRE (3 h) of 0.2 mg/dL, a Ca (3 h) of 11.4 mg/dL and a Cl (3 h) of 104.8 meq/L. The DBIL (3 h) was 0.068 mg/dL, the GLC (3 h) was 177 mg/dL and the IP (3 h) was 10.2 mg/dL. The K (3 h) was 4.3 meq/L, the LDH (3 h) was 68.8 IU/L and the Na (3 h) was 140.6 meq/L. The PL (3 h) was 174.2 mg/dL, the RALB (3 h) was 2.5 g/dL and the TBIL (3 h) was 0.072 mg/dL. It also gave a TC (3 h) of 88 mg/dL, a TG (3 h) of 155.6 mg/dL and a TP (3 h) of 5.5 g/dL. For the same compound, the gamma-GTP (3 h) was 1.2 IU/L, the TERMINAL_BW (6 h) was 224.5 g and the APTT (6 h) was 14.9 s. The Bas (6 h) was 0%, the Eos (6 h) was 0.8% and the Fbg (6 h) was 297 mg/dL. It also gave a Hb (6 h) of 13.9 g/dL, a Ht (6 h) of 40.4% and a Lym (6 h) of 76.2%. The MCH (6 h) was 21.1 pg, the MCHC (6 h) was 34.4% and the MCV (6 h) was 61.2 fL. For the same compound, the Mono (6 h) was 2.8%, the Neu (6 h) was 19.4% and the PT (6 h) was 12 s. The Plat (6 h) was 124.5 x10_4/uL, the RBC (6 h) was 659.6 x10_4/ul and the Ret (6 h) was 7.6%. For the same compound, the WBC (6 h) was 87.8 x10_2/uL, the KIDNEY_L (6 h) was 0.9 g and the KIDNEY_R (6 h) was 0.9 g. For the same compound, the KIDNEY_TOTAL (6 h) was 1.9 g, the LIVER (6 h) was 8.7 g and the A/G (6 h) was 0.9. The ALP (6 h) was 1550.4 IU/L, the ALT (6 h) was 42.4 IU/L and the AST (6 h) was 69.6 IU/L. The BUN (6 h) was 9.8 mg/dL, the CRE (6 h) was 0.2 mg/dL and the Ca (6 h) was 11.3 mg/dL. For the same compound, the Cl (6 h) was 107.2 meq/L, the DBIL (6 h) was 0.072 mg/dL and the GLC (6 h) was 181.2 mg/dL. The IP (6 h) was 10.7 mg/dL, the K (6 h) was 4.2 meq/L and the LDH (6 h) was 61.2 IU/L. For the same compound, the Na (6 h) was 142 meq/L, the PL (6 h) was 158.2 mg/dL and the RALB (6 h) was 2.7 g/dL. The TBIL (6 h) was 0.056 mg/dL, the TC (6 h) was 83.4 mg/dL and the TG (6 h) was 89.2 mg/dL. For the same compound, the TP (6 h) was 5.5 g/dL, the gamma-GTP (6 h) was 1 IU/L and the TERMINAL_BW (9 h) was 221.6 g. It also gave an APTT (9 h) of 16 s, a Bas (9 h) of 0% and an Eos (9 h) of 0.8%. For the same compound, the Fbg (9 h) was 274.2 mg/dL, the Hb (9 h) was 13.8 g/dL and the Ht (9 h) was 39.9%. It also gave a Lym (9 h) of 68.2%, an MCH (9 h) of 21.4 pg and an MCHC (9 h) of 34.6%. The MCV (9 h) was 62 fL, the Mono (9 h) was 2.8% and the Neu (9 h) was 27.4%. The PT (9 h) was 12.1 s, the Plat (9 h) was 125.1 x10_4/uL and the RBC (9 h) was 643.8 x10_4/ul. The Ret (9 h) was 7%, the WBC (9 h) was 83.1 x10_2/uL and the KIDNEY_L (9 h) was 1 g. The KIDNEY_R (9 h) was 0.9 g, the KIDNEY_TOTAL (9 h) was 1.9 g and the LIVER (9 h) was 8 g. For the same compound, the A/G (9 h) was 0.9, the ALP (9 h) was 1612 IU/L and the ALT (9 h) was 41.8 IU/L. The AST (9 h) was 70 IU/L, the BUN (9 h) was 10.8 mg/dL and the CRE (9 h) was 0.2 mg/dL. For the same compound, the Ca (9 h) was 11 mg/dL, the Cl (9 h) was 106.8 meq/L and the DBIL (9 h) was 0.082 mg/dL. The GLC (9 h) was 186.8 mg/dL, the IP (9 h) was 11 mg/dL and the K (9 h) was 4.1 meq/L. It also gave an LDH (9 h) of 53.4 IU/L, a Na (9 h) of 142.8 meq/L and a PL (9 h) of 131.2 mg/dL. The RALB (9 h) was 2.6 g/dL, the TBIL (9 h) was 0.054 mg/dL and the TC (9 h) was 67.6 mg/dL. For the same compound, the TG (9 h) was 59 mg/dL, the TP (9 h) was 5.5 g/dL and the gamma-GTP (9 h) was 1.2 IU/L. The TERMINAL_BW (24 h) was 225.5 g, the APTT (24 h) was 14.8 s and the Bas (24 h) was 0%. For the same compound, the Eos (24 h) was 0.6%, the Fbg (24 h) was 269.6 mg/dL and the Hb (24 h) was 13.8 g/dL. The Ht (24 h) was 39.8%, the Lym (24 h) was 83.4% and the MCH (24 h) was 21.8 pg. For the same compound, the MCHC (24 h) was 34.7%, the MCV (24 h) was 62.9 fL and the Mono (24 h) was 2.2%. For the same compound, the Neu (24 h) was 12.8%, the PT (24 h) was 12.3 s and the Plat (24 h) was 115.1 x10_4/uL. The RBC (24 h) was 633.8 x10_4/ul, the Ret (24 h) was 6.7% and the WBC (24 h) was 74 x10_2/uL. It also gave a KIDNEY_L (24 h) of 0.9 g, a KIDNEY_R (24 h) of 0.9 g and a KIDNEY_TOTAL (24 h) of 1.8 g. The LIVER (24 h) was 10.4 g, the A/G (24 h) was 0.9 and the ALP (24 h) was 1796.8 IU/L. The ALT (24 h) was 43.6 IU/L, the AST (24 h) was 68.2 IU/L and the BUN (24 h) was 15.8 mg/dL. The CRE (24 h) was 0.2 mg/dL, the Ca (24 h) was 11.3 mg/dL and the Cl (24 h) was 105 meq/L. It also gave a DBIL (24 h) of 0.072 mg/dL, a GLC (24 h) of 196.8 mg/dL and an IP (24 h) of 7.9 mg/dL. It also gave a K (24 h) of 4.1 meq/L, an LDH (24 h) of 56.4 IU/L and a Na (24 h) of 141.6 meq/L. It also gave a PL (24 h) of 125.2 mg/dL, an RALB (24 h) of 2.7 g/dL and a TBIL (24 h) of 0.04 mg/dL. It also gave a TC (24 h) of 62.6 mg/dL, a TG (24 h) of 69 mg/dL and a TP (24 h) of 5.5 g/dL. It also gave a gamma-GTP (24 h) of 1.2 IU/L.

From ChEMBL document CHEMBL3885861, “Open TG-GATES”
